Measured values from PubChem BioAssay (NCI).
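The compound was tested at five concentrations on cells cultured in 96-well plates, with a 48-hour exposure period. Here, GI50 denotes the concentration required for 50% inhibition of growth. TGI is the concentration that stops growth completely.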

Tests used:
Assay in all cases: DTP human tumour cell line panel, 48 h
SF-539 CNS = system: SF-539 CNS
SNB-19 CNS = system: SNB-19 CNS
A549 NSCLC = system: A549 NSCLC
BT-549 breast = system: BT-549 breast
OVCAR-5 ovarian = system: OVCAR-5 ovarian
SK-MEL-28 melanoma = system: SK-MEL-28 melanoma
OVCAR-8 ovarian = system: OVCAR-8 ovarian
UACC-257 melanoma = system: UACC-257 melanoma
K-562 leukemia = system: K-562 leukemia
SK-MEL-5 melanoma = system: SK-MEL-5 melanoma
HS 578T breast = system: HS 578T breast
NCI-H522 lung = system: NCI-H522 lung
RXF 393 renal = system: RXF 393 renal
HOP-62 NSCLC = system: HOP-62 NSCLC
EKVX NSCLC = system: EKVX NSCLC
DU-145 prostate = system: DU-145 prostate
OVCAR-3 ovarian = system: OVCAR-3 ovarian
MDA-N = system: MDA-N
OVCAR-4 ovarian = system: OVCAR-4 ovarian
SK-OV-3 ovarian = system: SK-OV-3 ovarian
PC-3 prostate = system: PC-3 prostate
HCT-15 colon = system: HCT-15 colon
NCI-H226 lung = system: NCI-H226 lung
MALME-3M melanoma = system: MALME-3M melanoma
U251 CNS = system: U251 CNS
UO-31 renal = system: UO-31 renal
ACHN renal = system: ACHN renal
MCF7 breast = system: MCF7 breast
T-47D breast = system: T-47D breast
COLO 205 colon = system: COLO 205 colon
KM12 colon = system: KM12 colon
SR leukemia = system: SR leukemia
786-0 renal = system: 786-0 renal
HL-60(TB) leukemia = system: HL-60(TB) leukemia
TK-10 renal = system: TK-10 renal
SNB-75 CNS = system: SNB-75 CNS
SF-268 CNS = system: SF-268 CNS
HT29 colon = system: HT29 colon
NCI/ADR-RES ovarian = system: NCI/ADR-RES ovarian
HCT-116 colon = system: HCT-116 colon
SK-MEL-2 melanoma = system: SK-MEL-2 melanoma
SN12C renal = system: SN12C renal
SW-620 colon = system: SW-620 colon
NCI-H23 lung = system: NCI-H23 lung
RPMI-8226 leukemia = system: RPMI-8226 leukemia
CAKI-1 renal = system: CAKI-1 renal
HOP-92 NSCLC = system: HOP-92 NSCLC
MDA-MB-231 breast = system: MDA-MB-231 breast
UACC-62 melanoma = system: UACC-62 melanoma
MDA-MB-435 = system: MDA-MB-435
M14 melanoma = system: M14 melanoma
LOX IMVI melanoma = system: LOX IMVI melanoma
MOLT-4 leukemia = system: MOLT-4 leukemia
SF-295 CNS = system: SF-295 CNS

## O=[N+]([O-])c1ccc2c3c1[C@H]1O[C@H]1c1cccc(c1-3)[C@@H]1O[C@H]21
SF-539 CNS
  TGI: 4.09 µM
SNB-19 CNS
  TGI: 13.6 µM
A549 NSCLC
  TGI: 15.5 µM
BT-549 breast
  TGI: 3.89 µM
OVCAR-5 ovarian
  TGI: 6.77 µM
SK-MEL-28 melanoma
  TGI: 6.73 µM
OVCAR-8 ovarian
  TGI: 3.24 µM
UACC-257 melanoma
  TGI: 4.87 µM
K-562 leukemia
  TGI: > 100 µM
SK-MEL-5 melanoma
  TGI: 7.82 µM
HS 578T breast
  TGI: 7.06 µM
NCI-H522 lung
  TGI: 3.42 µM
RXF 393 renal
  TGI: 3.38 µM
HOP-62 NSCLC
  TGI: 10.8 µM
EKVX NSCLC
  TGI: 4.08 µM
DU-145 prostate
  TGI: 6.25 µM
OVCAR-3 ovarian
  TGI: 6.2 µM
MDA-N
  TGI: 4.91 µM
OVCAR-4 ovarian
  TGI: 4.46 µM
SK-OV-3 ovarian
  TGI: 11.6 µM
PC-3 prostate
  TGI: > 20 µM
HCT-15 colon
  TGI: 4.47 µM
NCI-H226 lung
  TGI: > 100 µM
MALME-3M melanoma
  TGI: 4.64 µM
U251 CNS
  TGI: 3.98 µM
UO-31 renal
  TGI: 3.62 µM
ACHN renal
  TGI: 5.17 µM
MCF7 breast
  GI50: 2.78 µM
  TGI: > 100 µM
T-47D breast
  TGI: 6.18 µM
COLO 205 colon
  GI50: 1.72 µM
  TGI: 3.69 µM
KM12 colon
  TGI: 5.86 µM
SR leukemia
  TGI: > 100 µM
786-0 renal
  TGI: 3.56 µM
HL-60(TB) leukemia
  TGI: 8.85 µM
TK-10 renal
  TGI: > 30 µM
SNB-75 CNS
  TGI: 4.1 µM
SF-268 CNS
  TGI: 4.38 µM
HT29 colon
  TGI: 6.57 µM
NCI/ADR-RES ovarian
  TGI: 5.65 µM
HCT-116 colon
  TGI: 3.59 µM
SK-MEL-2 melanoma
  TGI: > 100 µM
SN12C renal
  TGI: 4.69 µM
SW-620 colon
  TGI: 2.75 µM
NCI-H23 lung
  TGI: 3.88 µM
RPMI-8226 leukemia
  TGI: > 100 µM
CAKI-1 renal
  TGI: 3.73 µM
HOP-92 NSCLC
  TGI: 5.03 µM
MDA-MB-231 breast
  TGI: 3.87 µM
UACC-62 melanoma
  TGI: 3.69 µM
MDA-MB-435
  TGI: 4.14 µM
M14 melanoma
  TGI: 3.75 µM
LOX IMVI melanoma
  TGI: 1.28 µM
MOLT-4 leukemia
  TGI: > 100 µM
SF-295 CNS
  TGI: 12.3 µM
